This is an account of results in patent US10844032B2, “Substituted benzofuran, benzothiophene and indole Mcl-1 inhibitors” (Vanderbilt University, priority 2012, dated 2020).

A value given as a limit tells only on which side of the number the result lay.

Sequence of recombinant Mcl-1 (residues 172-327) (Q07820 172-327): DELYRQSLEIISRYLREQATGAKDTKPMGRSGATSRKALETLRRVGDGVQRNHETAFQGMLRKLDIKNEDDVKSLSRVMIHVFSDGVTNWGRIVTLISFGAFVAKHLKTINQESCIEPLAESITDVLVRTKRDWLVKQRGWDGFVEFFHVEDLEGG

One assay has as its target recombinant Mcl-1 (residues 172-327) (Homo sapiens (Human), UniProt Q07820). Kind of assay: Bak peptide fluorescence polarization anisotropy competition assay, Mcl-1. The assay is classed as binding. Particulars: Table 2, Ki range; FITC-Bak peptide 10 nM, Mcl-1 14 nM; read-out: Ki for inhibition of Mcl-1. Background: Fluorescence polarisation rises when a labelled molecule tumbles more slowly, as on binding a larger partner.
For the compound `Cc1cc(OCCCc2c(C(=O)NS(=O)(=O)CCNC(=O)c3cccn3C)[nH]c3ccccc23)cc(C)c1Cl` [Example 170, 3-(3-(4-chloro-3,5-dimethylphenoxy)propyl)-N-((2-(1-methyl-1H-pyrrole-2-carboxamido)ethyl)sulfonyl)-1H-indole-2-carboxamide], the Ki (usually a dissociation constant, usually derived from enzyme kinetics or from competition with a known ligand) was at most 100 nM.

The same assay, now with this note: read-out: Ki for inhibition of Mcl-1.
As for `Cc1cc(OCCCc2c(C(=O)NS(=O)(=O)CCNC(=O)c3cccc(-c4ccccc4)c3)[nH]c3ccccc23)cc(C)c1Cl` [Example 165, N-((2-([1,1′-biphenyl]-3-ylcarboxamido)ethyl)sulfonyl)-3-(3-(4-chloro-3,5-dimethylphenoxy)propyl)-1H-indole-2-carboxamide], the inhibition constant (Ki) fell in the range of 301 to 500 nM.
For `Cc1cc(OCCCc2c(C(=O)NS(=O)(=O)CCNC(=O)c3ccc(Oc4ccccc4)cc3)[nH]c3ccccc23)cc(C)c1Cl` [Example 166, 3-(3-(4-chloro-3,5-dimethylphenoxy)propyl)-N-((2-(4-phenoxybenzamido)ethyl)sulfonyl)-1H-indole-2-carboxamide], the Ki is 301 to 500 nM.
On to `Cc1cc(OCCCc2c(C(=O)NS(=O)(=O)CCNC(=O)c3cccc(Oc4ccccc4)c3)[nH]c3ccccc23)cc(C)c1Cl` [Example 167, 3-(3-(4-chloro-3,5-dimethylphenoxy)propyl)-N-((2-(3-phenoxybenzamido)ethyl)sulfonyl)-1H-indole-2-carboxamide], for which the Ki lay in the range of 101 to 299 nM.
As for `Cc1cc(OCCCc2c(C(=O)NS(=O)(=O)CCNC(=O)[C@@H]3Cc4ccccc4N3)[nH]c3ccccc23)cc(C)c1Cl` [Example 168, (S)-3-(3-(4-chloro-3,5-dimethylphenoxy)propyl)-N-((2-(indoline-2-carboxamido)ethyl)sulfonyl)-1H-indole-2-carboxamide], the Ki was in the range of 101 to 299 nM.
Consider `Cc1cc(OCCCc2c(C(=O)NS(=O)(=O)CCNC(=O)Cc3ccc(Br)cc3)[nH]c3ccccc23)cc(C)c1Cl` [Example 169, N-((2-(2-(4-bromophenyl)acetamido)ethyl)sulfonyl)-3-(3-(4-chloro-3,5-dimethylphenoxy)propyl)-1H-indole-2-carboxamide], for which the Ki lay in the range of 301 to 500 nM.
The same measure, in the same setting: for `Cc1cc(OCCCc2c(C(=O)NS(=O)(=O)CCNC(=O)c3ccco3)[nH]c3ccccc23)cc(C)c1Cl` [Example 171, 3-(3-(4-chloro-3,5-dimethylphenoxy)propyl)-N-((2-(furan-2-carboxamido)ethyl)sulfonyl)-1H-indole-2-carboxamide] the value was 101 to 299 nM; for `Cc1cc(OCCCc2c(C(=O)NS(=O)(=O)CCNC(=O)c3cccn3-c3ccccc3)[nH]c3ccccc23)cc(C)c1Cl` [Example 172, 3-(3-(4-chloro-3,5-dimethylphenoxy)propyl)-N-((2-(1-phenyl-1H-pyrrole-2-carboxamido)ethyl)sulfonyl)-1H-indole-2-carboxamide], 101 to 299 nM; for `Cc1cc(OCCCc2c(C(=O)NS(=O)(=O)CCNC(=O)c3nccn3Cc3ccccc3)[nH]c3ccccc23)cc(C)c1Cl` [Example 173, N-((2-(1-benzyl-1H-imidazole-2-carboxamido)ethyl)sulfonyl)-3-(3-(4-chloro-3,5-dimethylphenoxy)propyl)-1H-indole-2-carboxamide], 501 to 999 nM.
The same measure, in the same setting: as for `CCc1ccc(CC(=O)NCCS(=O)(=O)NC(=O)c2[nH]c3ccccc3c2CCCOc2cc(C)c(Cl)c(C)c2)cc1` [Example 174, 3-(3-(4-chloro-3,5-dimethylphenoxy)propyl)-N-((2-(2-(4-ethylphenyl)acetamido)ethyl)sulfonyl)-1H-indole-2-carboxamide], the figure is 101 to 299 nM.
For `Cc1cc(OCCCc2c(C(=O)NS(=O)(=O)CCNC(=O)Cc3cn(C)c4ccccc34)[nH]c3ccccc23)cc(C)c1Cl` [Example 175, 3-(3-(4-chloro-3,5-dimethylphenoxy)propyl)-N-((2-(2-(1-methyl-1H-indol-3-yl)acetamido)ethyl)sulfonyl)-1H-indole-2-carboxamide], the Ki lay within 101 to 299 nM.
Still for that read-out and setting: as for `Cc1cc(OCCCc2c(C(=O)NS(=O)(=O)CCNC(=O)c3ccc4cc[nH]c4c3)[nH]c3ccccc23)cc(C)c1Cl` [Example 176, N-((2-(1H-indole-6-carboxamido)ethyl)sulfonyl)-3-(3-(4-chloro-3,5-dimethylphenoxy)propyl)-1H-indole-2-carboxamide], the figure is 101 to 299 nM; as for `Cc1cc(OCCCc2c(C(=O)NS(=O)(=O)CCNC(=O)Cc3c[nH]c4ccccc34)[nH]c3ccccc23)cc(C)c1Cl` [Example 177, N-((2-(2-(1H-indol-3-yl)acetamido)ethyl)sulfonyl)-3-(3-(4-chloro-3,5-dimethylphenoxy)propyl)-1H-indole-2-carboxamide], 101 to 299 nM.
For `Cc1cc(OCCCc2c(C(=O)NS(=O)(=O)CCNC(=O)c3ccc4[nH]ccc4c3)[nH]c3ccccc23)cc(C)c1Cl` [Example 178, N-((2-(1H-indole-5-carboxamido)ethyl)sulfonyl)-3-(3-(4-chloro-3,5-dimethylphenoxy)propyl)-1H-indole-2-carboxamide], the Ki is 101 to 299 nM.
Same read-out and setting: as for `Cc1cc(OCCCc2c(C(=O)NS(=O)(=O)CCNC(=O)CC34CC5CC(CC(C5)C3)C4)[nH]c3ccccc23)cc(C)c1Cl` [Example 179, N-((2-(2-((1s,3s)-adamantan-1-yl)acetamido)ethyl)sulfonyl)-3-(3-(4-chloro-3,5-dimethylphenoxy)propyl)-1H-indole-2-carboxamide], the figure is 101 to 299 nM; as for `Cc1cc(OCCCc2c(C(=O)NS(=O)(=O)CCNC(=O)C34CC5CC(CC(C5)C3)C4)[nH]c3ccccc23)cc(C)c1Cl` [Example 180, N-((2-((3r,5r,7r)-adamantane-1-carboxamido)ethyl)sulfonyl)-3-(3-(4-chloro-3,5-dimethylphenoxy)propyl)-1H-indole-2-carboxamide], 101 to 299 nM; as for `Cc1cc(OCCCc2c(C(=O)NS(=O)(=O)CCNC(=O)c3ccn[nH]3)[nH]c3ccccc23)cc(C)c1Cl` [Example 181, N-((2-(1H-pyrazole-5-carboxamido)ethyl)sulfonyl)-3-(3-(4-chloro-3,5-dimethylphenoxy)propyl)-1H-indole-2-carboxamide], 1000 to 9990 nM.
Consider `Cc1cc(OCCCc2c(C(=O)NS(=O)(=O)CCNC(=O)c3cn[nH]c3)[nH]c3ccccc23)cc(C)c1Cl` [Example 182, N-((2-(1H-pyrazole-4-carboxamido)ethyl)sulfonyl)-3-(3-(4-chloro-3,5-dimethylphenoxy)propyl)-1H-indole-2-carboxamide], for which the Ki was 1000 to 9990 nM.
Turning to `Cc1cc(OCCCc2c(C(=O)NS(=O)(=O)CCNC(=O)c3c(C)nn(C)c3C)[nH]c3ccccc23)cc(C)c1Cl` [Example 183, 3-(3-(4-chloro-3,5-dimethylphenoxy)propyl)-N-((2-(1,3,5-trimethyl-1H-pyrazole-4-carboxamido)ethyl)sulfonyl)-1H-indole-2-carboxamide], the Ki lay within 1000 to 9990 nM.
Still for that read-out and setting: for `Cc1cc(OCCCc2c(C(=O)NS(=O)(=O)CCNC(=O)c3cnn(Cc4ccccc4)c3)[nH]c3ccccc23)cc(C)c1Cl` [Example 184, N-((2-(1-benzyl-1H-pyrazole-4-carboxamido)ethyl)sulfonyl)-3-(3-(4-chloro-3,5-dimethylphenoxy)propyl)-1H-indole-2-carboxamide] the value was 1000 to 9990 nM; for `Cc1cc(OCCCc2c(C(=O)NS(=O)(=O)CCNC(=O)c3cc(Br)no3)[nH]c3ccccc23)cc(C)c1Cl` [Example 185, 3-bromo-N-(2-(N-(3-(3-(4-chloro-3,5-dimethylphenoxy)propyl)-1H-indole-2-carbonyl)sulfamoyl)ethyl)isoxazole-5-carboxamide], 501 to 999 nM; for `Cc1cc(OCCCc2c(C(=O)NS(=O)(=O)CCNC(=O)c3c[nH]cn3)[nH]c3ccccc23)cc(C)c1Cl` [Example 186, N-((2-(1H-imidazole-4-carboxamido)ethyl)sulfonyl)-3-(3-(4-chloro-3,5-dimethylphenoxy)propyl)-1H-indole-2-carboxamide], 1000 to 9990 nM.
Take `Cc1cc(OCCCc2c(C(=O)NS(=O)(=O)CCNC(=O)c3cncn3C)[nH]c3ccccc23)cc(C)c1Cl` [Example 187, 3-(3-(4-chloro-3,5-dimethylphenoxy)propyl)-N-((2-(1-methyl-1H-imidazole-5-carboxamido)ethyl)sulfonyl)-1H-indole-2-carboxamide]: the Ki fell in the range of 1000 to 9990 nM.
On the same count and under the same terms, for `Cc1cc(OCCCc2c(C(=O)NS(=O)(=O)CCNC(=O)c3cnco3)[nH]c3ccccc23)cc(C)c1Cl` [Example 188, N-(2-(N-(3-(3-(4-chloro-3,5-dimethylphenoxy)propyl)-1H-indole-2-carbonyl)sulfamoyl)ethyl)oxazole-5-carboxamide] the value was 1000 to 9990 nM; for `Cc1cc(OCCCc2c(C(=O)NS(=O)(=O)CCNC(=O)c3cncs3)[nH]c3ccccc23)cc(C)c1Cl` [Example 189, N-(2-(N-(3-(3-(4-chloro-3,5-dimethylphenoxy)propyl)-1H-indole-2-carbonyl)sulfamoyl)ethyl)thiazole-5-carboxamide], 501 to 999 nM.
The same measure, in the same setting: for `Cc1cc(OCCCc2c(C(=O)NS(=O)(=O)CCNC(=O)c3ccccn3)[nH]c3ccccc23)cc(C)c1Cl` [Example 190, 3-(3-(4-chloro-3,5-dimethylphenoxy)propyl)-N-((2-(picolinamido)ethyl)sulfonyl)-1H-indole-2-carboxamide] the value was 101 to 299 nM; for `Cc1cc(OCCCc2c(C(=O)NS(=O)(=O)CCNC(=O)c3cc(F)cc(F)n3)[nH]c3ccccc23)cc(C)c1Cl` [Example 191, 3-(3-(4-chloro-3,5-dimethylphenoxy)propyl)-N-((2-(4,6-difluoropicolinamido)ethyl)sulfonyl)-1H-indole-2-carboxamide], 1000 to 9990 nM.
Turning to `Cc1cc(OCCCc2c(C(=O)NS(=O)(=O)CCNC(=O)c3cc(C)n(C)c3C)[nH]c3ccccc23)cc(C)c1Cl` [Example 192, 3-(3-(4-chloro-3,5-dimethylphenoxy)propyl)-N-((2-(1,2,5-trimethyl-1H-pyrrole-3-carboxamido)ethyl)sulfonyl)-1H-indole-2-carboxamide], the Ki was 301 to 500 nM.
